Test results from US12227496B2 (BRISTOL-MYERS SQUIBB COMPANY, priority 2019, dated 2025).

Biological target: T1, human FXR (Homo sapiens, UniProt Q96RI1)
T1 construct: expressed in transfected cells; host or cells: HEK293 cells stably carrying a 5xGal4-response-element firefly luciferase reporter, transiently transfected with pcDNA3.1-Gal4-FXR
T1 sequence (Q96RI1 262-486 limits assumed): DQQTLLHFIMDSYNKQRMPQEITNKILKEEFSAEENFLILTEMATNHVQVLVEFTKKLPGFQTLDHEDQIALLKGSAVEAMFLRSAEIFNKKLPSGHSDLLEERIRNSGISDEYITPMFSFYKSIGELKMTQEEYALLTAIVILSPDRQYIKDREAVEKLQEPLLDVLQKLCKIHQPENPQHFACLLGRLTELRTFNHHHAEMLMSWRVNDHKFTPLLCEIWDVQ
Experiment: transient human FXR/Gal4-luciferase reporter assay
Format: cell-based
Conditions: Gal4-hFXR LBD fusion, luciferase reporter in HEK293 cells; response relative to 8 μM GW-4064
Summary of the method: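 HEK293 cells stably carrying a 5×Gal4-response-element firefly luciferase reporter were transiently transfected with Gal4-hFXR. They were then incubated overnight at 37 °C with compound serial dilutions in medium containing 10% charcoal/dextran-stripped FBS. Luminescence was read after Steady-Glo addition.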

Row | EC50 [µM] | Structure (SMILES)
1 | 2 | CN1CCC(C(=O)N(CC23CCC(c4cc(C5CC5)nn4C)(CC2)CC3)c2cccc(-c3cc(C4CC4)on3)c2)CC1 [Example 133, N-((4-(3-cyclopropyl-1-methyl-1H-pyrazol-5-yl)bicyclo[2.2.2]octan-1-yl)methyl)-N-(3-(5-cyclopropylisoxazol-3-yl)phenyl)-1-methylpiperidine-4-carboxamide]
2 | 0.205 | CC(C)(C)c1noc(C23CCC(CN(C(=O)C4CCC(F)(F)CC4)c4cccc(-c5cc(C6CC6)no5)c4)(CC2)CC3)n1 [Example 147, N-((4-(3-(tert-butyl)-1,2,4-oxadiazol-5-yl)bicyclo[2.2.2]octan-1-yl)methyl)-N-(3-(3-cyclopropylisoxazol-5-yl)phenyl)-4,4-difluorocyclohexane-1-carboxamide]
3 | 0.107 | CC(C)(C)c1nc(C23CCC(CN(C(=O)C4CCC(F)(F)CC4)c4cccc(-c5cc(C6CC6)no5)c4)(CC2)CC3)no1 [Example 148, N-((4-(5-(tert-butyl)-1,2,4-oxadiazol-3-yl)bicyclo[2.2.2]octan-1-yl)methyl)-N-(3-(3-cyclopropylisoxazol-5-yl)phenyl)-4,4-difluorocyclohexane-1-carboxamide]
4 | 0.078 | O=C(C1CCC(F)(F)CC1)N(CC12CCC(c3noc(C4(C(F)(F)F)CC4)n3)(CC1)CC2)c1cccc(-c2cc(C3CC3)no2)c1 [Example 149, N-(3-(3-cyclopropylisoxazol-5-yl)phenyl)-4,4-difluoro-N-((4-(5-(1-(trifluoromethyl)cyclopropyl)-1,2,4-oxadiazol-3-yl)bicyclo[2.2.2]octan-1-yl)methyl)cyclohexane-1-carboxamide]
5 | 0.038 | CC(F)(F)c1nc(C23CCC(CN(C(=O)C4CCC(F)(F)CC4)c4cccc(-c5cc(C6CC6)no5)c4)(CC2)CC3)no1 [Example 150, N-(3-(3-cyclopropylisoxazol-5-yl)phenyl)-N-((4-(5-(1,1-difluoroethyl)-1,2,4-oxadiazol-3-yl)bicyclo[2.2.2]octan-1-yl)methyl)-4,4-difluorocyclohexane-1-carboxamide]
6 | 0.038 | O=C(C1CCC(F)(F)CC1)N(CC12CCC(c3nc(C4CC4)no3)(CC1)CC2)c1cccc(-c2cc(C3CC3)no2)c1 [Example 151, N-((4-(3-cyclopropyl-1,2,4-oxadiazol-5-yl)bicyclo[2.2.2]octan-1-yl)methyl)-N-(3-(3-cyclopropylisoxazol-5-yl)phenyl)-4,4-difluorocyclohexane-1-carboxamide]
7 | 0.057 | CC(F)(F)c1nc(C23CCC(CN(C(=O)C4CCC(F)(F)CC4)c4cccc(-c5cc(C6CC6)on5)c4)(CC2)CC3)no1 [Example 154, N-(3-(5-cyclopropylisoxazol-3-yl)phenyl)-N-((4-(5-(1,1-difluoroethyl)-1,2,4-oxadiazol-3-yl)bicyclo[2.2.2]octan-1-yl)methyl)-4,4-difluorocyclohexane-1-carboxamide]
8 | 0.289 | CC(F)(F)c1nc(C23CCC(CN(C(=O)C4CCS(=O)(=O)CC4)c4cccc(-c5cc(C6CC6)on5)c4)(CC2)CC3)no1 [Example 155, N-(3-(5-cyclopropylisoxazol-3-yl)phenyl)-N-((4-(5-(1,1-difluoroethyl)-1,2,4-oxadiazol-3-yl)bicyclo[2.2.2]octan-1-yl)methyl)tetrahydro-2H-thiopyran-4-carboxamide 1,1-dioxide]
9 | 0.044 | CC(F)(F)c1nc(C23CCC(CN(C(=O)C4CCOCC4)c4cccc(-c5cc(C6CC6)on5)c4)(CC2)CC3)no1 [Example 156, N-(3-(5-cyclopropylisoxazol-3-yl)phenyl)-N-((4-(5-(1,1-difluoroethyl)-1,2,4-oxadiazol-3-yl)bicyclo[2.2.2]octan-1-yl)methyl)tetrahydro-2H-pyran-4-carboxamide]
10 | 0.242 | CC(F)(F)c1nc(C23CCC(CN(C(=O)C4CCC(O)(C(F)(F)F)CC4)c4cccc(-c5cc(C6CC6)on5)c4)(CC2)CC3)no1 (centres unmarked) [Example 157, N-(3-(5-cyclopropylisoxazol-3-yl)phenyl)-N-((4-(5-(1,1-difluoroethyl)-1,2,4-oxadiazol-3-yl)bicyclo[2.2.2]octan-1-yl)methyl)-4-hydroxy-4-(trifluoromethyl)cyclohexane-1-carboxamide]

More lines, now with the values behind:

Row | Structure (SMILES) | EC50 [µM]
11 | Cn1nc(C2CC2)cc1C12CCC(CN(C(=O)C3CCOCC3)c3cccc(-c4ccc(S(C)(=O)=O)cc4)c3)(CC1)CC2 [Example 134, N-((4-(3-cyclopropyl-1-methyl-1H-pyrazol-5-yl)bicyclo[2.2.2]octan-1-yl)methyl)-N-(4′-(methylsulfonyl)-[1,1′-biphenyl]-3-yl)tetrahydro-2H-pyran-4-carboxamide] | 0.511
12 | Cn1nc(C2CC2)cc1C12CCC(CN(C(=O)C3CCS(=O)(=O)CC3)c3cccc(-c4ccc(S(C)(=O)=O)cc4)c3)(CC1)CC2 [Example 135, N-((4-(3-cyclopropyl-1-methyl-1H-pyrazol-5-yl)bicyclo[2.2.2]octan-1-yl)methyl)-N-(4′-(methylsulfonyl)-[1,1′-biphenyl]-3-yl)tetrahydro-2H-thiopyran-4-carboxamide 1,1-dioxide] | 4
13 | CN1CCC(C(=O)N(CC23CCC(c4cc(C5CC5)nn4C)(CC2)CC3)c2cccc(-c3ccc(S(C)(=O)=O)cc3)c2)CC1 [Example 136, N-((4-(3-cyclopropyl-1-methyl-1H-pyrazol-5-yl)bicyclo[2.2.2]octan-1-yl)methyl)-1-methyl-N-(4′-(methylsulfonyl)-[1,1′-biphenyl]-3-yl)piperidine-4-carboxamide] | 4
14 | Cc1nc2ccc(-c3cccc(N(CC45CCC(c6cc(C7CC7)nn6C)(CC4)CC5)C(=O)C4CCC(F)(F)CC4)c3)cc2s1 [Example 137, N-((4-(3-cyclopropyl-1-methyl-1H-pyrazol-5-yl)bicyclo[2.2.2]octan-1-yl)methyl)-4,4-difluoro-N-(3-(2-methylbenzo[d]thiazol-6-yl)phenyl)cyclohexane-1-carboxamide] | 0.449
15 | Cn1nc(C2CC2)cc1C12CCC(CN(C(=O)C3CCS(=O)(=O)CC3)c3cccc(-c4cc(C5CC5)no4)c3)(CC1)CC2 [Example 138, N-((4-(3-cyclopropyl-1-methyl-1H-pyrazol-5-yl)bicyclo[2.2.2]octan-1-yl)methyl)-N-(3-(3-cyclopropylisoxazol-5-yl)phenyl)tetrahydro-2H-thiopyran-4-carboxamide 1,1-dioxide] | 1.58
16 | Cn1nc(C2CC2)cc1C12CCC(CN(C(=O)C3CCOCC3)c3cccc(-c4cc(C5CC5)no4)c3)(CC1)CC2 [Example 139, N-((4-(3-cyclopropyl-1-methyl-1H-pyrazol-5-yl)bicyclo[2.2.2]octan-1-yl)methyl)-N-(3-(3-cyclopropylisoxazol-5-yl)phenyl)tetrahydro-2H-pyran-4-carboxamide] | 0.087
17 | CN1CCC(C(=O)N(CC23CCC(c4cc(C5CC5)nn4C)(CC2)CC3)c2cccc(-c3cc(C4CC4)no3)c2)CC1 [Example 140, N-((4-(3-cyclopropyl-1-methyl-1H-pyrazol-5-yl)bicyclo[2.2.2]octan-1-yl)methyl)-N-(3-(3-cyclopropylisoxazol-5-yl)phenyl)-1-methylpiperidine-4-carboxamide] | 2.64
18 | CC(C)(C)c1noc(C23CCC(CN(C(=O)C4CCC(F)(F)CC4)c4cccc(-c5cnn6cc(Cl)cnc56)c4)(CC2)CC3)n1 [Example 141, N-((4-(3-(tert-butyl)-1,2,4-oxadiazol-5-yl)bicyclo[2.2.2]octan-1-yl)methyl)-N-(3-(6-chloropyrazolo[1,5-a]pyrimidin-3-yl)phenyl)-4,4-difluorocyclohexane-1-carboxamide] | 0.549
19 | Cc1cn(-c2cccc(N(CC34CCC(c5nc(C(C)(C)C)no5)(CC3)CC4)C(=O)C3CCC(F)(F)CC3)c2)cn1 [Example 142, N-((4-(3-(tert-butyl)-1,2,4-oxadiazol-5-yl)bicyclo[2.2.2]octan-1-yl)methyl)-4,4-difluoro-N-(3-(4-methyl-1H-imidazol-1-yl)phenyl)cyclohexane-1-carboxamide] | 0.721
20 | CCOc1ncc(-c2cccc(N(CC34CCC(c5noc(C(C)(C)F)n5)(CC3)CC4)C(=O)c3ccc(OC)cc3)c2)cn1 [Example 143, N-(3-(2-ethoxypyrimidin-5-yl)phenyl)-N-((4-(5-(2-fluoropropan-2-yl)-1,2,4-oxadiazol-3-yl)bicyclo[2.2.2]octan-1-yl)methyl)-4-methoxybenzamide] | 0.202
21 | CCOc1ncc(-c2cccc(N(CC34CCC(c5noc(C(C)(C)F)n5)(CC3)CC4)C(=O)c3ccc(OC(F)F)cc3)c2)cn1 [Example 144, 4-(difluoromethoxy)-N-(3-(2-ethoxypyrimidin-5-yl)phenyl)-N-((4-(5-(2-fluoropropan-2-yl)-1,2,4-oxadiazol-3-yl)bicyclo[2.2.2]octan-1-yl)methyl)benzamide] | 0.334
22 | O=C(C1CCS(=O)(=O)CC1)N(CC12CCC(c3nc(C4CC4)no3)(CC1)CC2)c1cccc(-c2cc(C3CC3)no2)c1 [Example 152, N-((4-(3-cyclopropyl-1,2,4-oxadiazol-5-yl)bicyclo[2.2.2]octan-1-yl)methyl)-N-(3-(3-cyclopropylisoxazol-5-yl)phenyl)tetrahydro-2H-thiopyran-4-carboxamide 1,1-dioxide] | 0.662
23 | O=C(C1CCOCC1)N(CC12CCC(c3nc(C4CC4)no3)(CC1)CC2)c1cccc(-c2cc(C3CC3)no2)c1 [Example 153, N-((4-(3-cyclopropyl-1,2,4-oxadiazol-5-yl)bicyclo[2.2.2]octan-1-yl)methyl)-N-(3-(3-cyclopropylisoxazol-5-yl)phenyl)tetrahydro-2H-pyran-4-carboxamide] | 0.057
